Data taken from PubChem BioAssay AID328 (DTP/NCI, 2004).
Where “and” joins values, the source holds several entries; their conditions need not be identical. Identical values can stand only once. Inconclusive results and toxic doses are left out. Rule for the calls: active = survival T/C of 150% or more; inactive = T/C below 125% in these data.

System: BDF1 mice, P388 leukemia ip, median survival T/C
Test: NCI In Vivo Anticancer Drug Screen. Data for tumor model P388 Leukemia (intraperitoneal) in B6D2F1 (BDF1) mice
Details: endpoint: median survival time, higher = longer survival
Procedure: The antitumor activity of compounds was measured in mice bearing transplantable tumors. Survival or tumor size were measured and the results are expressed as the measurement made in the treated group (T) divided by the measurement made in the vehicle treated control group (C). The tumor model used in this assay is P388 Leukemia (intraperitoneal) in B6D2F1 (BDF1) mice

[1] = dose: 100.0 mg/kg/injection, schedule: Q01DX001 (ip), vehicle: Klucel (hydroxypropylcellulose) (HPC)
[2] = dose: 200.0 mg/kg/injection, schedule: Q01DX001 (ip), vehicle: Klucel (hydroxypropylcellulose) (HPC)
[3] = dose: 400.0 mg/kg/injection, schedule: Q01DX001 (ip), vehicle: Klucel (hydroxypropylcellulose) (HPC)
[4] = dose: 100.0 mg/kg/injection, schedule: Q04DX003 (ip), vehicle: Klucel (hydroxypropylcellulose) (HPC)
[5] = dose: 200.0 mg/kg/injection, schedule: Q04DX003 (ip), vehicle: Klucel (hydroxypropylcellulose) (HPC)
[6] = dose: 400.0 mg/kg/injection, schedule: Q04DX003 (ip), vehicle: Klucel (hydroxypropylcellulose) (HPC)
[7] = dose: 12.5 mg/kg/injection, schedule: Q01DX009 (ip), vehicle: saline with Tween-80
[8] = dose: 25.0 mg/kg/injection, schedule: Q01DX009 (ip), vehicle: saline with Tween-80
[9] = dose: 50.0 mg/kg/injection, schedule: Q01DX009 (ip), vehicle: saline with Tween-80
[10] = dose: 6.25 mg/kg/injection, schedule: Q01DX009 (ip), vehicle: saline with Tween-80
[11] = dose: 100.0 mg/kg/injection, schedule: Q01DX009 (ip), vehicle: saline with Tween-80
[12] = dose: 100.0 mg/kg/injection, schedule: Q04DX003 (ip), vehicle: saline with Tween-80
[13] = dose: 200.0 mg/kg/injection, schedule: Q01DX009 (ip), vehicle: saline with Tween-80
[14] = dose: 200.0 mg/kg/injection, schedule: Q04DX003 (ip), vehicle: saline with Tween-80
[15] = dose: 400.0 mg/kg/injection, schedule: Q04DX003 (ip), vehicle: saline with Tween-80
[16] = dose: 100.0 mg/kg/injection, schedule: Q01DX009 (ip), vehicle: saline
[17] = dose: 50.0 mg/kg/injection, schedule: Q01DX009 (ip), vehicle: saline
[18] = dose: 200.0 mg/kg/injection, schedule: Q01DX009 (ip), vehicle: saline
[19] = dose: 50.0 mg/kg/injection, schedule: Q01DX005 (ip), vehicle: saline with Tween-80
[20] = dose: 100.0 mg/kg/injection, schedule: Q01DX005 (ip), vehicle: saline with Tween-80
[21] = dose: 200.0 mg/kg/injection, schedule: Q01DX005 (ip), vehicle: saline with Tween-80
[22] = dose: 100.0 mg/kg/injection, schedule: Q01DX009 (ip), vehicle: Klucel (hydroxypropylcellulose) (HPC)
[23] = dose: 400.0 mg/kg/injection, schedule: Q01DX009 (ip), vehicle: Klucel (hydroxypropylcellulose) (HPC)

Measured: T/C

CC1(C)C=C(C(N)=O)C(C)(C)N1O
inactive: [1] 100 % of control | [2] 88 % of control | [3] 96 % of control

COC(=O)c1cc(Cl)c(C(=O)OC)cc1Cl
inactive: [4] 104 % of control | [5] 96 % of control | [6] 100 % of control

CCOC(=O)C1Cc2c([nH]c(=S)[nH]c2=O)OC1c1ccccc1 (stereo not drawn)
inactive: [7] 100 % of control | [8] 90 % of control | [9] 104 % of control

CB1NN=C(C)c2ccsc21
inactive: [10] 105 % of control | [7] 91 % of control | [8] 95 % of control

O=C=Nc1ccc(CCc2ccc(N=C=O)cc2)cc1
inactive: [9] 110 % of control | [11] 120 % of control

[Cl][Ni][Cl].[NH-]CCN1CC1.[NH-]CCN1CC1
inactive: dose: 6.25 mg/kg/injection, schedule: Q01DX001 (ip), vehicle: saline 100 % of control | dose: 12.5 mg/kg/injection, schedule: Q01DX001 (ip), vehicle: saline 100 % of control | dose: 25.0 mg/kg/injection, schedule: Q01DX001 (ip), vehicle: saline 100 % of control

O=C(NCCCCCCCCCCNC(=O)N1CC1)N1CC1
active: dose: 3.0 mg/kg/injection, schedule: Q04DX003 (ip), vehicle: saline with Tween-80 154 % of control | dose: 4.5 mg/kg/injection, schedule: Q04DX003 (ip), vehicle: saline with Tween-80 241 % of control

Brc1cnc(OCc2ccccc2)nc1OCc1ccccc1
inactive: [11] 103 % of control | [12] 104 % of control | [13] 103 % of control | [14] 104 % of control | dose: 400.0 mg/kg/injection, schedule: Q01DX009 (ip), vehicle: saline with Tween-80 107 % of control | [15] 108 % of control

CC1(C)N=C(N)N=C(N)N1c1ccc(OCC(=O)N2CCOCC2)c(Cl)c1
inactive: dose: 66.0 mg/kg/injection, schedule: Q01DX009 (ip), vehicle: saline 107 % of control | [16] 103 % of control | dose: 150.0 mg/kg/injection, schedule: Q01DX009 (ip), vehicle: saline 111 % of control
active: dose: 100.0 mg/kg/injection, schedule: Q01DX009 (ip), vehicle: saline sonified 172 % of control

Cc1cnc2c(N)[nH]nc2n1
inactive: dose: 50.0 mg/kg/injection, schedule: Q04DX003 (ip), vehicle: Klucel (hydroxypropylcellulose) (HPC) 86 % of control | [4] 109 % of control | [5] 100 % of control

CC1=C(Br)C(=O)C(c2c(C)c(Br)c(C)c([N+](=O)[O-])c2C)=C(Br)C1=O
inactive: [1] 100 % of control | [2] 110 % of control | [3] 100 % of control

CC1(C)C2CC34CCCN3C(=O)C2(CC12Nc1ccccc1C2=O)NC4=O (stereo not drawn)
inactive: [17] 102 % of control | [16] 109 % of control | [18] 113 % of control

ClCCn1cnc2c(SCc3ccccc3Cl)ncnc21
inactive: [8] 100 % of control | [9] 91 % of control | [11] 108 % of control | [12] 100 % of control | [15] 112 % of control

CN(C)c1ccc(C=Nc2c(N)n(C)c(=O)n(C)c2=O)cc1
inactive: [12] 101 % of control | [14] 92 % of control | [15] 93 % of control

COC(=O)c1c([N+](=O)[O-])cccc1[N+](=O)[O-]
inactive: [19] 97 % of control | [20] 97 % of control | [21] 94 % of control

CC(=O)O.O=CCO.[C-]#[O+].[C-]#[O+].[C-]#[O+].[C-]#[O+].[Rh].[Rh]
inactive: dose: 25.0 mg/kg/injection, schedule: Q01DX009 (ip), vehicle: Klucel (hydroxypropylcellulose) (HPC) 119 % of control | dose: 50.0 mg/kg/injection, schedule: Q01DX009 (ip), vehicle: Klucel (hydroxypropylcellulose) (HPC) 122 % of control

NC(=O)c1ncc(-c2ccccc2)[nH]c1=O
inactive: [17] 104 % of control | [16] 100 % of control | [18] 109 % of control

COC(=O)c1ccccc1C1(c2ccccc2C(=O)OC)OC(=O)c2ccccc21
inactive: [22] 100 % of control | dose: 200.0 mg/kg/injection, schedule: Q01DX009 (ip), vehicle: Klucel (hydroxypropylcellulose) (HPC) 100 % of control | [23] 100 % of control

CN=C(N)c1ccc(N=C(N)c2ccc(-c3ccc(C(N)=Nc4ccc(C(N)=NC)cc4)cc3)cc2)cc1
inactive: dose: 3.0 mg/kg/injection, schedule: Q04DX003 (ip), vehicle: saline 118 % of control | dose: 3.12 mg/kg/injection, schedule: Q01DX009 (ip), vehicle: saline 123 % of control | dose: 5.5 mg/kg/injection, schedule: Q01DX009 (ip), vehicle: saline 121 % of control | dose: 6.0 mg/kg/injection, schedule: Q04DX003 (ip), vehicle: saline 118 % of control | dose: 12.0 mg/kg/injection, schedule: Q04DX003 (ip), vehicle: saline 122 % of control | dose: 12.5 mg/kg/injection, schedule: Q04DX003 (ip), vehicle: saline 115 % of control | dose: 18.0 mg/kg/injection, schedule: Q01DX009 (ip), vehicle: saline 96 % of control

Cc1cc(N(CCCl)CCCl)ccc1C=Nc1ccccc1-c1ccccc1
active: [23] 150 % of control and 158 % of control | dose: 600.0 mg/kg/injection, schedule: Q01DX009 (ip), vehicle: Klucel (hydroxypropylcellulose) (HPC) 200 % of control | dose: 600.0 mg/kg/injection, schedule: Q04DX003 (ip), vehicle: Klucel (hydroxypropylcellulose) (HPC) 154 % of control
inactive: [22] 120 % of control | [4] 112 % of control | [5] 116 % of control | dose: 266.0 mg/kg/injection, schedule: Q04DX003 (ip), vehicle: Klucel (hydroxypropylcellulose) (HPC) 120 % of control | [6] 95 % of control

COC(=O)CC(C)Cc1ccc(OC)c(OC)c1 (stereo not drawn)
inactive: [11] 104 % of control | [12] 95 % of control | [13] 112 % of control | [14] 109 % of control | [15] 109 % of control

N#CC1(C#N)C(c2ccccc2)C1(C#N)C#N
inactive: dose: 2.0 mg/kg/injection, schedule: Q01DX009 (ip), vehicle: saline with Tween-80 120 % of control | dose: 2.66 mg/kg/injection, schedule: Q01DX009 (ip), vehicle: saline with Tween-80 122 % of control | dose: 2.66 mg/kg/injection, schedule: Q01DX009 (ip), vehicle: saline 109 % of control and 120 % of control | dose: 4.0 mg/kg/injection, schedule: Q01DX009 (ip), vehicle: saline 108 % of control | dose: 6.0 mg/kg/injection, schedule: Q01DX009 (ip), vehicle: saline 118 % of control | [10] 115 % of control | dose: 8.0 mg/kg/injection, schedule: Q01DX009 (ip), vehicle: saline with Tween-80 120 % of control

Nc1nc(N)c2cc(NCc3ccc(Br)cc3)ccc2n1
inactive: dose: 3.12 mg/kg/injection, schedule: Q01DX009 (ip), vehicle: Klucel (hydroxypropylcellulose) (HPC) 105 % of control | dose: 6.25 mg/kg/injection, schedule: Q01DX009 (ip), vehicle: Klucel (hydroxypropylcellulose) (HPC) 100 % of control | dose: 12.5 mg/kg/injection, schedule: Q01DX009 (ip), vehicle: Klucel (hydroxypropylcellulose) (HPC) 95 % of control

COc1cc(N=Nc2c[nH]c3ccccc23)c(OC)cc1N=Nc1ccc([N+](=O)[O-])cc1
inactive: [19] 92 % of control | [20] 106 % of control | [21] 111 % of control

CN(C)CCC(=O)c1ccccc1
inactive: dose: 25.0 mg/kg/injection, schedule: Q01DX009 (ip), vehicle: saline 100 % of control

O=Nc1ccc2ccccc2c1O
inactive: dose: 50.0 mg/kg/injection, schedule: Q01DX001 (ip), vehicle: Klucel (hydroxypropylcellulose) (HPC) 107 % of control | [1] 104 % of control

CCCCCC(C)(C)O
inactive: [17] 95 % of control | [16] 104 % of control | dose: 100.0 mg/kg/injection, schedule: Q04DX003 (ip), vehicle: saline 112 % of control | [18] 104 % of control | dose: 200.0 mg/kg/injection, schedule: Q04DX003 (ip), vehicle: saline 100 % of control
